In EP1005446B1, “N-AROYLPHENYLALANINE DERIVATIVES” (priority 1997, dated 1999):

Target: T1, VLA-4 (α4β1 integrin) (Homo sapiens, UniProt P05556+P13612)
T1 construct: followed by 10 µl of Ramos cell-derived VLA-4; endogenous in cells; host or cells: Ramos cells (VLA-4 preparation derived from the cells)
Assay: VLA-4 / VCAM-1 Screening Assay (solid-phase, dual antibody ELISA)
Conditions: inhibition of binding of Ramos cell-derived VLA-4 to immobilized recombinant human VCAM-1
Method: VLA-4 / VCAM-1 Screening Assay
VLA-4 antagonist activity, defined as ability to compete for binding to immobilized VCAM-1, was quantitated using a solid-phase, dual antibody ELISA. VLA-4 (α4β1 integrin) bound to VCAM-1 was detected by a complex of anti-integrin β1 antibody: HRP-conjugated anti-mouse IgG: chromogenic substrate (K-Blue). Initially, this entailed coating 96 well plates (Nunc Maxisorp) with recombinant human VCAM-1 (0.4 µg in 100 µl PBS), sealing each plate and then allowing the plates to stand at 4°C for ^~18 hr.

T1 sequence (P13612 34-1032): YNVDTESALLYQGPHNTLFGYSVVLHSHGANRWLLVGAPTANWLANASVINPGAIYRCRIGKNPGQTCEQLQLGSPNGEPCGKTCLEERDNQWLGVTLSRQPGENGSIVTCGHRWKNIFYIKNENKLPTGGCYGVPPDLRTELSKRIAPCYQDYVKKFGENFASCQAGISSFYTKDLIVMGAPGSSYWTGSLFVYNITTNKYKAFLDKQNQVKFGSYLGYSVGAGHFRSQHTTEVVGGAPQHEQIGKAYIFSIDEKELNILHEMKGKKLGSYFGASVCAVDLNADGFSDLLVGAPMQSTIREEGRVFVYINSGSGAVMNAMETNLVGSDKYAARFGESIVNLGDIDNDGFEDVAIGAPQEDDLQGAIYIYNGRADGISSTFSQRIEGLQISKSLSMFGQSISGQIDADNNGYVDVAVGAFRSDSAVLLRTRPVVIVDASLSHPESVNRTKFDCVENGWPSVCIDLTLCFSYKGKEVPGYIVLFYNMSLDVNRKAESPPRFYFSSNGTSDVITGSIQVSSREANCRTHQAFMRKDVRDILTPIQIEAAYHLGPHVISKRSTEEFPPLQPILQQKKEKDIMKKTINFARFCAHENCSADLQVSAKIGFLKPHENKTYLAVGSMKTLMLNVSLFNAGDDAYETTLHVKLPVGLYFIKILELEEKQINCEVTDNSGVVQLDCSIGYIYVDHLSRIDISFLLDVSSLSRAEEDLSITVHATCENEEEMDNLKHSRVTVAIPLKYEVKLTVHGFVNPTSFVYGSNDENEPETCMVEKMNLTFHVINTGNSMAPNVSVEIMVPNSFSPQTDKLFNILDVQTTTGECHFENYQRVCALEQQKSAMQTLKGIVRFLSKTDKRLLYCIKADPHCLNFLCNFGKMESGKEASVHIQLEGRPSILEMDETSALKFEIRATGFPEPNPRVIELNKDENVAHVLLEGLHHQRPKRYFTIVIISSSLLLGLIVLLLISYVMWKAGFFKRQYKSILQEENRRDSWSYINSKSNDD
T1 sequence (P05556 21-798): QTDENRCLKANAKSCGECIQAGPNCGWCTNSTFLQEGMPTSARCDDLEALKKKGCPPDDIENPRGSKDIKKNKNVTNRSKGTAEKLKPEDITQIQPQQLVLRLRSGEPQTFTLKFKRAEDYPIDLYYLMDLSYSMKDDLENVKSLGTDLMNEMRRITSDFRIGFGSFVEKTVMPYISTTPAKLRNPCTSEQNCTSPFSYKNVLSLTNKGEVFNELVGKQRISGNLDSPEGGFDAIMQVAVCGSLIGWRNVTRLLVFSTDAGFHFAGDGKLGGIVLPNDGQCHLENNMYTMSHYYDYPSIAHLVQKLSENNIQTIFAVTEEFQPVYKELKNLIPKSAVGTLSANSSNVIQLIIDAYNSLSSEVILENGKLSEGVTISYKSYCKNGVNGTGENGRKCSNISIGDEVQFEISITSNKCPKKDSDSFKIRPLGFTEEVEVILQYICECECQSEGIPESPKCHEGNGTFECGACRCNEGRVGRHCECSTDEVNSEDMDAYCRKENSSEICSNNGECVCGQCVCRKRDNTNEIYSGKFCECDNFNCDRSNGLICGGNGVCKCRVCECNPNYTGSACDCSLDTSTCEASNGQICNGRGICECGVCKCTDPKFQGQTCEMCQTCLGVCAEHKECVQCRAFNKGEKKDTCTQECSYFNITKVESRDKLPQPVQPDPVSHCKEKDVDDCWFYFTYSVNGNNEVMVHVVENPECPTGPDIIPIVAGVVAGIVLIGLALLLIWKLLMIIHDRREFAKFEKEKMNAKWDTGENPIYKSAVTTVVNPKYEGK

SMILES: COCCC1(C(=O)N[C@@H](Cc2ccc(NC(=O)c3c(Cl)cccc3Cl)cc2)C(=O)O)CCCC1 [Example 59, 4-[[(2,6-dichlorophenyl)carbonyl]amino]-N-[[1-(2-methoxyethyl)cyclopentyl]carbonyl]-L-phenylalanine]
- IC50: 0.26 nM
